Measurements: patent US5049673A, “Fluorescent indicator dyes for calcium working at long wavelengths” (The Regents of the University of California, priority 1987, dated 1991)
Read-outs that look alike come from different tables or passages of the source.

Assays:
[1] = Calibration of [Ca2+] increases produced by UV photolysis of nitr-5 or nitr-7; settings: results not shown
Source text: The most obvious difference between the present chelators and the previous tetracarboxylate Ca^2+ chelators is in their wavelengths of fluorescence excitation and emission. The new indicators' similarity to fluoresceins and rhodamines make them optically compatible with almost any fluorometer, fluorescence microscope, or flow cytometer already used for immunofluorescence detection. The fluorescein analogs fluo-1, -2, and -3 can be excited by incandescent illumination or the prominent 488 nm line of an […]. The rhodamine analogs rhod-1 rhod-2 are suited to incandescent illumination, the 531 nm line of a krypton-ion laser, or the 546 nm line of a mercury arc. By contrast, the earlier dyes quin-2 and fura-2 are best excited at 340-350 or 380-390 nm from a xenon lamp. Indo-1 does best with 350-360 nm from a xenon arc or the low-power UV lines of argon or krypton lasers. Optical elements for these UV wavelengths are preferably reflective or are made from quartz, glasses with enhanced UV transmission, or very thin ordinary glass. Plastics or thick (>1 mm) ordinary glass elements generally give too much absorbance or autofluorescence or both. By contrast, even these cheap optical materials are compatible with blue or green excitation.

[2] = room temperature, 0.1 M KCl, no added Mg^2+; read-out: Ca^2+ dissociation constant (Kd) used for FIG. 6; cited from earlier work
[3] = pH 7.03, 100 mM KCl, 20° C; read-out: Apparent dissociation constant for the Ca^2+ complex; cited from earlier work
[4] = pH 7.60, 0.12 M ionic strength, 20°; read-out: Apparent dissociation constant for the Mg^2+ complex (including monoprotonated form); cited from earlier work

Structure (SMILES)	Effect of excitation wavelengths on "caged" calcium [1]	Kd [2] [µM]	Kd [3] [µM]	Kd [4] [µM]
Cc1ccc(N(CC(=O)O)CC(=O)O)c(OCCOc2cc3cc(-c4ncc(C(=O)O)o4)oc3cc2N(CC(=O)O)CC(=O)O)c1 [fura-2]	the excitation wavelengths began to photolyze the "caged" calcium	0.135	–	–
O=C(O)CN(CCOCCOCCN(CC(=O)O)CC(=O)O)CC(=O)O [EGTA, ethylene glycol bis(-beta-aminoethyl ether)-N,N,N',N'-tetraacetic acid]	–	–	0.327	6000
